The text below walks through data of article PMC9023544, “Ketone-selenoesters as potential anticancer and multidrug resistance modulation agents in 2D and 3D ovarian and breast cancer in vitro models” (Scientific Reports, 2022).

For one assay, the system named is HOC/ADR. The assay is described as follows: Sensitization of MDR cell line to Adriamycin. The assay is classed as cell-based, human. The note with it: IC50 of Adriamycin / IC50 of Adriamycin with IC10 dose of compound. The protocol: To determine the sensitization potential of compounds, HOC/ADR and MCF-7/PAX were used. Based on the cytotoxic potential of the compounds against several cancer and non-cancerous cell lines (Table 1), the concentrations of applied compounds were adjusted. IC10 values was considered as the concentrations, which should not decrease the cell viability under 90%. After the addition of compounds, Adriamycin (concentration range 0.1–20 µM) and paclitaxel (concentration range 0.1–10 µM) were added to HOC/ADR and MCF-7/PAX, respectively. The sensitization potential of the compounds was determined as the ratio of the IC50 of cytostatic agent (Adriamycin/paclitaxel) to the IC50 of cytostatic agent affected by the compound in concentration corresponding to the IC10 value. Fold change greater than 1 indicated synergic effect of cytostatic agent and the tested compound.
After that, the plates were washed 1× with PBS and fresh DMEM medium supplemented with tested compounds at final concentration corresponding their IC10 value was added, except for positive control wells. Subsequently, Adriamycin (concentration range 0.1–20 µM) or paclitaxel (concentration range 0.1–10 µM) was added to the appropriate cell line for 72 h. After incubation, the cells were washed 1× with PBS and the resazurin solution (0.03 mg/mL) was added to evaluate the cell viability as described above. IC50 values of cytostatics were calculated for both the control and compounds; a fold change was counted up. When this fold change is higher than 1 indicates a synergism between the tested cytostatic agent and the compound, while a fold change lower than 1 means an antagonism. Fold change=IC50value of cytostatic treated cells only/IC50value of cytostatic treated cells in addition of the compound

Assay [1] relates to HOC/ADR spheroids. The assay is described as follows: 3D spheroid formation. The assay is classed as cell-based, human. The following applies: 1 µM. How it is done:
(§1) To monitor the effect of selenoesters on spheroid formation, HOC, HOC/ADR, MCF-7 and MCF-7/PAX cell lines were used. 24 h after HOC cells’ inoculation, the diameter of formed spheroids was measured. The spheroids with diameters above 200 µm are characterized by the presence of a concentration gradient of oxygen, nutrients, and metabolites. The ovarian cancer cells (HOC, HOC/ADR) formed aggregates in which single cells could be recognized (Figs. 3, 4). In contrast, breast cancer cell lines (MCF-7, MCF-7/PAX) (Figs. 5, 6) formed compact spheroids where individual cells could not be distinguished because of close cell–cell interactions. According to this fact, the easier penetration and action of compounds into spheroids of ovarian cancer cells is expected. Upon selenoesters’ addition, the images of spheroids were taken regularly to determine their areas relative to the control spheroids in medium containing the solvent (1% V/V DMSO).
(§2) Human ovarian and breast cancer cells (parental and resistant) were seeded into U bottom 96-well plates (VWR, Radnor, Pennsylvania, United States) coated with 0.8% SeaKem LE Agarose at a cell density 0.5 × 10^5 cells/mL (HOC, HOC/ADR) and 1 × 10^5 cell/mL (MCF-7, MCF-7/PAX) in 100 µL of medium with appropriate cytostatic agent. After 24 h, the plates were enriched with 100 µL of medium with tested compounds K3, K4, K7 at the final concentration of 1 µM, except for control cells (100 µL medium with 1% V/V DMSO). Spheroids were recorded 0; 24; 48 and 72 h after exposure to tested compounds by using the light microscope Axio Vert. A1 (Zeiss, Jena, Germany) with photo documentation equipment, Axiocam ICC 1 and Axio Vision 4.8 software (Zeiss), and the spheroid areas were determined by using ImageJ (National Institute of Health, Bethesda, Maryland, United States). Subsequently, a spheroid growth was calculated according to equation: Spheroid area%=SAS at t/SAC at t×100 where SAS represents the area of spheroids treated with the compound; SAC is the control spheroid area; and the exposure time (t = 0; 24; 48; 72 h).

In assay [2] the test system is MCF-7 spheroids. The assay is described as follows: 3D spheroid formation. The assay is classed as cell-based, human. The note with it: 1 µM, whole treatment (24–72 h). How it is done:
as §1, §2

The subject of assay [3] is HOC spheroids. The assay is described as follows: Cytotoxic activity against 3D models, CellTiter-Glo 3D. Type of assay: cell-based. The note with it: Homo sapiens; 72 h old spheroids, 72 h incubation, n=4. The protocol: (§3) The ability of selenoesters to affect the formation of spheroids was described in the previous section. Subsequently, we have tested the cytotoxic potential of selenoesters in preformed 72 h old spheroids. Both sensitive and resistant mature breast and ovarian cells spheroids were incubated in the presence of selenoesters in a concentration range 1.6–100 µM. […] A safe concentration of selenoesters has been established based on the results of sensitization of drug-resistant 3D models.
(§4) Human ovarian and breast cancer cells (HOC, MCF-7, parental and resistant) were seeded in ultra-low attachment 96-well plates (Sigma-Aldrich) at a cell density of 0.5 × 10^5 cells/mL. After 3 days of spheroid formation, plates were carefully washed once with PBS and fresh DMEM medium (99 µL) was added. Using a binary compound dilution, the concentration range of the K3, K4, K7 compounds was prepared in new 96-well plates (0.16–10 mM). After 1 µL compound transfer, the final concentration range of compounds was 1.6–100 µM. The required volume of DMSO (1% V/V) was added to the positive control. After 72 h of incubation, 100 µL of CellTiter-Glo 3D Re-agent (Promega) was added to each well. Spheroid plates were incubated for 25 min at room temperature. Subsequently, the luminescent signal was recorded by detector (SpectraMax i3x Multi-Mode Microplate reader with MiniMax Imaging Cytometer, Molecular Devices).

Assay [4] relates to HOC/ADR spheroids. Described as above. Type of assay: cell-based. The following applies: Homo sapiens; 72 h old spheroids, 72 h incubation, n=4. The protocol: as §3, §4
Assay [5] deals with MCF-7 spheroids. Described as above. The assay is classed as cell-based. The note with it: Homo sapiens, MCF7; 72 h old spheroids, 72 h incubation, n=4. How it is done:
as §3, §4

The test system of assay [6] is MCF-7/PAX spheroids. The description is as above. The note with it: Homo sapiens, MCF7; 72 h old spheroids, 72 h incubation, n=4. Type of assay: cell-based. How it is done:
as §3, §4

Assay [7] has as its system HOC spheroids. The assay is described as follows: 3D spheroid formation. The assay is classed as cell-based. The following applies: Homo sapiens, 24 h, read-out: inhibition of HOC spheroid growth. The protocol:
as §1, with “According to this fact, the easier penetration and action of compounds into spheroids of ovarian cancer cells is expected. Upon selenoesters’ addition, the images of spheroids were taken regularly to determine their areas relative to the control spheroids in medium containing the solvent (1% V/V DMSO).” left out
Human ovarian and breast cancer cells (parental and resistant) were seeded into U bottom 96-well plates (VWR, Radnor, Pennsylvania, United States) coated with 0.8% SeaKem LE Agarose at a cell density 0.5 × 10^5 cells/mL (HOC, HOC/ADR) and 1 × 10^5 cell/mL (MCF-7, MCF-7/PAX) in 100 µL of medium with appropriate cytostatic agent. […] Spheroids were recorded 0; 24; 48 and 72 h after exposure to tested compounds by using the light microscope Axio Vert. A1 (Zeiss, Jena, Germany) with photo documentation equipment, Axiocam ICC 1 and Axio Vision 4.8 software (Zeiss), and the spheroid areas were determined by using ImageJ (National Institute of Health, Bethesda, Maryland, United States). […]

The subject of assay [8] is MCF-7/PAX spheroids. The assay is described as follows: 3D spheroid formation. The note with it: 1 µM, first 24 h. The assay is classed as cell-based, human. How it is done: as §1, §2

Broadly, the IC50 is the concentration that inhibits the measured activity by half. Lower therefore signals higher potency. Broadly, the inhibition is the share of the control response that was lost under treatment.

On to `CC(=O)C[Se]C(=O)c1ccc(Br)cc1` [K3], for which the Fold change entry in the assay with HOC/ADR is on record as “(1.4 ± 0.1)×”. Further, in the assay with HOC/ADR spheroids [1] (first 24 h), the “decrease of HOC/ADR spheroid growth” value amounted to 45%. In addition, the “MCF-7 spheroid growth relative to control” value with MCF-7 spheroids [2] is listed as “under 80%”. The IC50 came out at 1.7 ± 0.1 µM in the assay with HOC spheroids [3], 3.9 ± 0.2 µM in the assay with HOC/ADR spheroids [4], 2.5 ± 0.2 µM in the assay on MCF-7 spheroids [5] and 4 ± 0.1 µM in the assay with MCF-7/PAX spheroids [6].
For `CC(=O)C[Se]C(=O)c1ccccc1C(F)(F)F` [K4], the Fold change result with HOC/ADR was “(1.4 ± 0.1)×”. Also, the IC50 in the assay with HOC spheroids [3] was found to be 3.1 ± 0.1 µM; in the assay with HOC/ADR spheroids [4], 10.5 ± 0.5 µM; in the assay with MCF-7 spheroids [5], 2.1 µM; with MCF-7/PAX spheroids [6] it was 4.8 ± 0.3 µM.
For the compound `CC(=O)C[Se]C(=O)c1ccc(C(C)(C)C)cc1` [K7], the inhibition at 1 µM in the assay on HOC spheroids [7] is above 40%. Besides, the “HOC/ADR spheroid area compared to the control” value with HOC/ADR spheroids [1] was determined as 75%. Moreover, the “effect on MCF-7/PAX spheroid growth (in words)” value in the assay with MCF-7/PAX spheroids [8] is recorded as “slowed down”. Besides, the IC50 in the assay on HOC spheroids [3] came to 2.8 ± 0.1 µM; in the assay with HOC/ADR spheroids [4] it was 10.1 ± 0.5 µM; in the assay on MCF-7 spheroids [5], 2.2 ± 0.3 µM; in the assay with MCF-7/PAX spheroids [6], 7.5 ± 0.2 µM.
